# Like-named read-outs stand apart in the source and are kept apart here.
# Key:
# [1] = PAMPA‐GIT; format: in vitro ADME; conditions: for Classification: standard drugs used as control
# Procedure: (§1) The lipid mixture that impregnates the filter has a different constitution for the permeability tests for the BBB (brain lipid from pig extract in n‐dodecane) and the GIT (L‐α soy phosphatidylcholine in n‐dodecane). The optical density values obtained in the reading at each selected wavelength, for each of the compounds, were analyzed in comparison with the values of several controls within a calibration curve (≥ 7 drugs). In the case of the BBB, these values were used to elaborate an equation and determine the permeability coefficient (Pe), while GIT used absorbed fraction (Fa%).
# [2] = PAMPA-GIT, standard drugs; literature value, ref not given; cited from earlier work
# [3] = PAMPA‐BBB; format: in vitro ADME; conditions: for Classification: standard drugs used as control
# Procedure: as §1
# [4] = test system: PC‐9 (EGFRL858R); assay: Apoptosis by flow cytometry (Muse Annexin V & Dead Cell Kit); format: cell-based, human; conditions: PC‐9, 72 h; for increase in the population of cells undergoing apoptosis: at their CC50; for phosphatidylserine externalization and cell membrane permeabilization, share of the NSCLC cell population: LASSBio‐1974 10 µM, CA‐4 0.1 µM
# Procedure: (§2) PC‐9 (EGFRL858R) cell line was seeded at 1 × 10^5 cells/well in a 24‐well plate. […] All flow cytometry assays were performed using Guava Muse Cell Analyzer (Cytek Biosciences) following each kit user's guide provided by the manufacturer. Muse Cell Cycle Kit (catalog no. MCH100106) was chosen to evaluate cell cycle arresting. Apoptosis features were evaluated using Muse Annexin V & Dead Cell Kit (catalog no. MCH100105), as well as inactivation of EGFR using Muse EGFR‐RTK Activation Dual Detection Kit (catalog no. MCH200102). Statistical analysis was performed using one‐way ANOVA on data collected in duplicate from at least two independent experiments (n ≥ 2), employing GraphPad Prism software (version 8.0).
# [5] = test system: NCI‐H1975 (EGFRL858R/T790M); assay: Cell viability by MTT assay, NCI-H1975; conditions: Homo sapiens; for IC50: read-out: cytotoxic activity, NCI-H1975 (EGFRL858R/T790M); for CC50: NCI-H1975, 72 h, read-out: cytotoxic activity CC50, NCI‐H1975 (EGFRL858R/T790M)
# Procedure: (§3) All cell lines were harvested at 37°C and 5% CO2 atmosphere humid incubator.
# (§4) Cells were plated at 1 × 10^4 to 3 × 10^4 cells/well and seeded in a 96‐well plate. After 16–24 h of cell acclimatization, compounds were added at 0.003–100 µM concentrations (1% DMSO vehicle). After 72 h, treatment was interrupted to measure cell viability using MTT (3‐(4,5‐dimethylthiazol‐2‐yl)‐2,5‐diphenyltetrazolium bromide) (50 µg/mL) [62]. Formazan formed by viable cells was solubilized after 4 h incubation with SDS/HCl solution (0.1 g/mL) and read at 570 nm in spectrophotometer.
# [6] = test system: EGFR in PC‐9 (EGFRL858R); assay: EGFR activation by flow cytometry (Muse EGFR‐RTK Activation Dual Detection Kit); format: cell-based, human
# Procedure: as §2
# [7] = test system: PC‐9 (EGFRL858R); assay: Cell viability by sulforhodamine B (SRB) assay, PC-9; conditions: Homo sapiens, 72 h, read-out: cytotoxic activity CC50, PC‐9 (EGFRL858R)
# Procedure: as §3
# (§5) Cells were plated at 1 × 10^4 to 3 × 10^4 cells/well and seeded in a 96‐well plate. After 16–24 h of cell acclimatization, compounds were added at 0.003–100 µM concentrations (1% DMSO as vehicle). The experimental procedure was handled as described by Vichai and Kirtikara [63]. After incubation, cells were fixed with trichloroacetic acid (TCA) (10% m/v) for 1 h at 4°C. SRB (0.004% w/v in acetic acid 1%) was added for 30 min and washed with acetic acid 1%.
# [8] = test system: NCI‐H1975 (EGFRL858R/T790M); assay: Cell viability by sulforhodamine B (SRB) assay, NCI-H1975; format: cell-based; conditions: Homo sapiens, 72 h, read-out: cytotoxic activity CC50, NCI‐H1975 (EGFRL858R/T790M)
# Procedure: as §3, §5
# [9] = test system: EGFRL858R/T790M; design: method as in PMID 30626888; conditions: in vitro enzymatic model; cited from earlier work
# [10] = test system: PC‐9 (EGFRL858R); assay: Cell viability by MTT assay, PC-9; conditions: for IC50: read-out: cytotoxic activity, PC-9 (EGFRL858R)
# Procedure: as §3, §4
# [11] = test system: PC‐9 (EGFRL858R); assay: Cell cycle by flow cytometry (Muse Cell Cycle Kit); format: cell-based, human; conditions: PC‐9, 24 h
# Procedure: as §2
# [12] = test system: NCI‐H292 (EGFRwt); assay: Cell viability by sulforhodamine B (SRB) assay, NCI-H292; conditions: Homo sapiens, NCI-H292, 72 h, read-out: cytotoxic activity CC50, NCI‐H292 (EGFRwt)
# Procedure: as §3, §5
# [13] = test system: EGFRL858R; design: method as in PMID 30626888; conditions: in vitro enzymatic model; cited from earlier work
# [14] = test system: EGFRwt; design: method as in PMID 30626888; conditions: in vitro enzymatic model; cited from earlier work
# [15] = test system: NCI‐H292 (EGFRwt); assay: Cell viability by MTT assay, NCI-H292; conditions: Homo sapiens; for IC50: read-out: cytotoxic activity, NCI-H292 (EGFRw.t.); for CC50: NCI-H292, 72 h
# Procedure: as §3, §4
# [16] = Microsomal metabolic stability; format: in vitro ADME, rat; conditions: for Metabolism rate: RLM 1 mg/mL, 10 μM, 60 min; for Elimination rate constant (k) / half-life at 10 µM / microsomal CLint at 10 µM: RLM; for half-life at 10 µM / microsomal CLint at 10 µM: rat, rat liver microsomes
# Procedure: The metabolic stability of compounds LASSBio‐1971 (1) and LASSBio‐1974 (2) (10 μM) was incubated in 1 mg/mL of rat microsomes in the presence and absence of the cofactor (i.e., NADPH‐generating system) at the same concentrations as in the previous section. After mixing and incubating at 37°C in a shaking water bath for 1 h, 500 µL cold acetonitrile containing the internal standard was added to terminate the reaction at different time intervals (0, 15, 30, 45, and 60 min).
# [17] = PAMPA-GIT, standard drugs used as control (n = 2)
# [18] = PAMPA-GIT, standard drugs used as control (n = 2), read-out: Pe experimental
# [19] = Homo sapiens, 72 h, read-out: cytotoxic activity CC50, PC‐9 (EGFRL858R)
# [20] = NADPH regenerator system: Absence
# [21] = NADPH regenerator system: Presence
smiles,measurement,setting,value
Nc1nc2c(ncn2COCCO)c(=O)[nH]1 [Acyclovir],Fa exp.,[1]; [17],1.70%
CC(C)NCC(O)COc1ccc(CC(N)=O)cc1 (stereo not shown) [Atenolol],Fa lit.,[2],5.2%
same,Fa exp.,[1]; [17],2.26%
"Cn1c(=O)c2c(ncn2C)n(C)c1=O [Caffeine, reference compound]",Classification,[3]; PAMPA-BBB,CNS -
CO/N=C(\C(=O)N[C@@H]1C(=O)N2C(C(=O)O)=C(CSc3nc(=O)c(=O)[nH]n3C)CS[C@H]12)c1csc(N)n1 [Ceftriaxone],Fa lit.,[2],1%
same,Pe literature,[2],0.10 10^-6 cm s^-1
same,Classification,[1]; PAMPA-GIT,Low (low permeability (0%–29%))
same,Fa exp.,[1]; [17],1.37%
same,Papp,[1]; [18],0.67 ×10⁻⁶ cm/s
O=C(O)Cc1ccccc1Nc1c(Cl)cccc1Cl [Diclofenac],Fa lit.,[2],100%
same,Pe literature,[2],12.50 10^-6 cm s^-1
same,Classification,[1]; PAMPA-GIT,High (high intestinal permeability (70%–100%))
same,Fa exp.,[1]; [17],99.31%
same,Papp,[1]; [18],13.1 ×10⁻⁶ cm/s
"CCn1cc(C(=O)O)c(=O)c2cc(F)c(N3CCNCC3)nc21 [Enoxacin, reference compound]",Classification,[3]; PAMPA-BBB,CNS +
same,Papp,"[3]; PAMPA-BBB, standard drugs used as control (n = 2), read-out: Pe experimental",0.56 ×10⁻⁶ cm/s
"C#Cc1cccc(Nc2ncnc3cc(OCCOC)c(OCCOC)cc23)c1 [Erlotinib, erlotinib, reference compound]",increase in the population of cells undergoing apoptosis,[4],approximately 10%
same,IC50,"[5]; NCI-H1975, 48 h",> 100 µM
CN(C)C/C=C/C(=O)Nc1ccc2ncc(NC(=O)Nc3ccccc3)nc2c1 [LASSBio‐1974 (2)],inhibition of phosphorylation and activation of EGFR,"[6]; PC‐9, at respective CC50, compared to vehicle (DMSO 1%)",inhibit phosphorylation
same,CC50,[7],1.22 µM
same,CC50,[8],20.5 µM
same,IC50,[9],0.132 ± 0.049 µM
same,IC50,"[10]; Homo sapiens, 24 h",9.74 µM
same,IC50,"[10]; Homo sapiens, 48 h",1.22 µM
same,CC50,[10]; [19],1.1 µM
same,cell cycle arrest phase,[11]; 1 µM,cycle arresting in the G0/G1 phase
same,cell cycle arrest phase,[11]; 10 µM,cell cycle arrest in G2/M phase
same,Classification GIT,[1]; PAMPA‐GIT,Low (low permeability (0%–29%))
same,Fa (absorbed fraction),[1]; PAMPA‐GIT,26.78%
same,Papp,"[1]; PAMPA‐GIT, mean ± standard deviation (n = 3), read-out: Pe. Exp. GIT",0.82 ± 0.47 ×10⁻⁶ cm/s
same,CC50,[12],8.99 µM
same,"phosphatidylserine externalization and cell membrane permeabilization, share of the NSCLC cell population",[4],~90%
same,IC50,[13],0.032 ± 0.014 µM
same,Classification BBB,[3]; PAMPA‐BBB,CNS ±
same,Pe. Exp. BBB,"[3]; PAMPA‐BBB, mean ± standard deviation (n = 3)",2.37 10^−6 cm/s
same,Papp,"[3]; PAMPA‐BBB, mean ± standard deviation (n = 3), read-out: Pe. Exp. BBB",2.37 ± 0.44 ×10⁻⁶ cm/s
same,IC50,[14],0.101 ± 0.012 µM
same,IC50,"[5]; NCI-H1975, 24 h",38 µM
same,IC50,"[5]; NCI-H1975, 48 h",6.58 µM
same,CC50,[5],7.09 µM
same,IC50,"[15]; NCI-H292, 24 h",16.4 µM
same,IC50,"[15]; NCI-H292, 48 h",7.25 µM
same,CC50,"[15]; read-out: cytotoxic activity CC50, NCI‐H292 (EGFRwt), MTT, 72 h",4.98 µM
same,Metabolism rate,[16]; [20],10.78%
same,Metabolism rate,[16]; [21],83.11%
same,Elimination rate constant (k),[16]; [20],0.0016
same,Elimination rate constant (k),[16]; [21],0.1172
same,half-life at 10 µM,[16]; [20],7.22 h
same,microsomal CLint at 10 µM,[16]; [20],0.4 µL/min/mg
same,half-life at 10 µM,[16]; [21],0.0985 h
same,microsomal CLint at 10 µM,[16]; [21],29.3 µL/min/mg
"C=CC(=O)Nc1cc(Nc2nccc(-c3cn(C)c4ccccc34)n2)c(OC)cc1N(C)CCN(C)C [Osimertinib, osimertinib, reference compound]",inhibition of phosphorylation and activation of EGFR,[6],inhibited phosphorylation
same,CC50,[7],0.07 µM
same,IC50,"[10]; Homo sapiens, 24 h",8.32 µM
same,IC50,"[10]; Homo sapiens, 48 h",0.17 µM
same,CC50,[10]; [19],0.05 µM
same,CC50,[12],6.86 µM
same,increase in the population of cells undergoing apoptosis,[4],approximately 10%
same,IC50,"[15]; NCI-H292, 48 h",6.81 µM
same,CC50,"[15]; read-out: cytotoxic activity CC50, NCI‐H292 (EGFRwt)",6.3 µM
CNC(=C[N+](=O)[O-])NCCSCc1ccc(CN(C)C)o1 [Ranitidine],Classification,[1]; PAMPA-GIT,Medium (medium permeability (30%–69%))
same,Fa exp.,[1]; [17],38.29%
same,Papp,[1]; [18],0.3 ×10⁻⁶ cm/s
O=C(O)c1cc(/N=N/c2ccc(S(=O)(=O)Nc3ccccn3)cc2)ccc1O [Sulfasalazine],Fa lit.,[2],42%
same,Pe literature,[2],0.30 10^-6 cm s^-1
"COc1ccc(/C=C\c2cc(OC)c(OC)c(OC)c2)cc1O [combretastatin A4, reference compound]",CC50,"[10]; read-out: CC50 stated in figure legend, PC‐9, CC50 given as concentration used in flow cytometry, assay and time not stated",0.1 µM
same,"phosphatidylserine externalization and cell membrane permeabilization, share of the NSCLC cell population",[4],~60%
